Experimental data as given in patent US11147785B2, “Modified free amino acid formulation and uses” (priority 2020, dated 2021).

Legend:
[1] = Topical application without propylene glycol; type: in vivo
[2] = tested on: hepatic and intestinal glucuronidation; conditions: concomitant administration; more in humans than rats; cited from earlier work

## N[C@@H](CCC(=O)O)C(=O)[O-].O.[Na+] [MSGLM, Monosodium L-Glutamate Monohydrate]
[1]
  Efficacy in topical applications: ineffective

## O=C(/C=C/C=C/c1ccc2c(c1)OCO2)N1CCCCC1 [Piperine]
[2]
  Increase of bioavailability (serum concentration and extent of intestinal absorption): up to 20 fold
